From patent publication US9456972B2, “Niacin-peptide having skin whitening activity and use for same” (priority 2011, dated 2016)
Square brackets hold non-standard residues; d marks the D form. Ends that are not written are not given here. Peptide text beside a SMILES is read from it. * marks the point of attachment. Nicotinoyl = O=C(c1cccnc1)*; βAla = NCCC(=O)O

Tested on: B16F10 melanocytes
Assay: Screening of niacin-peptides: inhibition of melanogenesis against α-MSH
Type: cell-based, mouse
Design: key: relative to absorbance (490 nm) of α-MSH-only positive control
Conditions: 20 μg/ml α-MSH plus 10 ng/ml peptide, 3 days, UV 490 nm, α-MSH-only positive control as standard
Protocol: The present inventors screened skin whitening peptides by measuring decrease in melanogenesis using the niacin-peptide libraries prepared in Example 1. B16F10 melanocytes (the Korean Cell Line Bank) were incubated with α-MSH to induce melanogenesis and the inhibition of melanogenesis by the peptide libraries was analyzed. The mouse melanocytes were cultured at 37° C. in 5% CO2 atmosphere in DMEM supplemented with 10% FBS. The cells were seeded in each well of a 96-well plate (5×10^4 cells/well) and their attachment was verified. Afterwards, the control group was incubated with only solvent, the positive control group was incubated with 20 μg/ml of α-MSH and the other wells was incubated with 20 μg/ml of α-MSH and 10 ng/ml of peptides for 3 days.
The inhibition rates of melanogenesis by treatment of each peptide prepared in Example 1 were measured at UV 490 nm. The inhibition rates were calculated using the absorbance value of the positive control group incubated with only α-MSH as a standard, which are summarized in Table 1. The candidate peptides analyzed to show excellent screening results were selected and synthesized in a 100-μmole scale for further experiments. FIG. 1 represents the screening result of niacin-peptides.

Row | Molecule | Screening value: Inhibition of melanogenesis against α-MSH
1 | nicotinoyl-DKYV | 0.87
2 | nicotinoyl-YGY (Nicotinoyl-Tyr-Gly-Tyr) | 0.69
3 | nicotinoyl-NP | 0.8
4 | nicotinoyl-KRGDR (Nicotinoyl-KRGDR) | 0.92
5 | nicotinoyl-AHK (Nicotinoyl-Ala-His-Lys) | 0.8
6 | nicotinoyl-KAKA (Nicotinoyl-KAKA) | 0.87
7 | nicotinoyl-GPRPA-NH2 (Nicotinoyl-GPRPA-NH2; SMILES C[C@H](NC(=O)[C@@H]1CCCN1C(=O)[C@H](CCCNC(=N)N)NC(=O)[C@@H]1CCCN1C(=O)CNC(=O)c1cccnc1)C(N)=O) | 0.7
8 | nicotinoyl-GPQGPQ (Nicotinoyl-GPQGPQ) | 0.88
9 | nicotinoyl-YGGFM (Nicotinoyl-YGGFM) | 0.81
10 | nicotinoyl-KRGKP (Nicotinoyl-KRGKP) | 0.84
11 | nicotinoyl-SIKVAV (Nicotinoyl-SIKVAV) | 0.72
12 | nicotinoyl-YT | 0.75
13 | nicotinoyl-GPHyp | 0.89
14 | nicotinoyl-FWY (Nicotinoyl-Phe-Trp-Tyr) | 0.61
15 | nicotinoyl-beta-AHSH (Nicotinoyl-[βAla]HSH) | 0.82
16 | nicotinoyl-EEMQRR-NH2 (Nicotinoyl-EEMQRR-NH2; SMILES CSCC[C@H](NC(=O)[C@H](CCC(=O)O)NC(=O)[C@H](CCC(=O)O)NC(=O)c1cccnc1)C(=O)N[C@@H](CCC(N)=O)C(=O)N[C@@H](CCCNC(=N)N)C(=O)N[C@@H](CCCNC(=N)N)C(N)=O) | 0.86
17 | nicotinoyl-PLG-NH2 (Nicotinoyl-Pro-Leu-Gly-NH2; SMILES CC(C)C[C@H](NC(=O)[C@@H]1CCCN1C(=O)c1cccnc1)C(=O)NCC(N)=O) | 0.92
18 | nicotinoyl-SSNA (Nicotinoyl-SSNA) | 0.71

Row | Molecule | Screening value: Inhibition of melanogenesis against α-MSH
19 | nicotinoyl-KVARP (Nicotinoyl-KVARP) | 0.96
20 | nicotinoyl-YGYTGA (Nicotinoyl-YGYTGA) | 0.95
21 | nicotinoyl-GEPG (Nicotinoyl-GEPG) | 0.96
22 | nicotinoyl-YPFF-NH2 (Nicotinoyl-YPFF-NH2; SMILES NC(=O)[C@H](Cc1ccccc1)NC(=O)[C@H](Cc1ccccc1)NC(=O)[C@@H]1CCCN1C(=O)[C@H](Cc1ccc(O)cc1)NC(=O)c1cccnc1) | 0.85
23 | nicotinoyl-KTTKS (Nicotinoyl-KTTKS) | 0.92
24 | nicotinoyl-KVK (Nicotinoyl-Lys-Val-Lys) | 1.01
25 | nicotinoyl-RKDVY (Nicotinoyl-RKDVY) | 0.87
26 | nicotinoyl-GHR (Nicotinoyl-Gly-His-Arg) | 0.75
27 | nicotinoyl-VPAA (Nicotinoyl-VPAA) | 0.85
28 | nicotinoyl-VEPIPY (Nicotinoyl-VEPIPY) | 0.81
29 | nicotinoyl-ISELGW (Nicotinoyl-ISELGW) | 0.64
30 | nicotinoyl-TYR (Nicotinoyl-Thr-Tyr-Arg) | 0.72
31 | nicotinoyl-GRKG (Nicotinoyl-GRKG) | 0.93
32 | nicotinoyl-GQPR (Nicotinoyl-GQPR) | 0.83
33 | nicotinoyl-VGVAPG (Nicotinoyl-VGVAPG) | 0.95
34 | nicotinoyl-YGGFL | 0.78
35 | nicotinoyl-KLAKK (Nicotinoyl-KLAKK) | 0.96

Tested on: B16F10 cells
Assay: Skin whitening effect: melanogenesis at various concentrations in α-MSH-treated melanocytes
Type: cell-based, mouse
Conditions: 1, 10, 100 and 250 μg/ml, 3 days
Protocol: Cells were treated with various concentrations of niacin-peptide, followed by measuring activity in inhibition of melanogenesis. The mouse melanocytes were cultured at 37° C. in 5% CO2 atmosphere in DMEM supplemented with 10% FBS. The cells were seeded in each well of a 24-well plate (1×10^5 cells/well) and their attachment was verified. Cells were incubated with each test group for 3 days: (a) only solvent as negative control; (b) 20 μg/ml α-MSH as a positive control; (c) 20 μg/ml α-MSH plus 1, 10, 100 and 250 μg/ml niacin-peptides (NA-PG, NAPS, NA-ET and NA-VS); (d) 1, 10, 100 and 250 μg/ml arbutin; and (e) 1, 10, 100 and 250 μg/ml AA2G.
FIG. 5 is images of melanocytes representing treatment effects of NA-PS and PS peptides on melanogenesis decrease rate in a concentration dependent manner.
For analyzing the release amount of melanin, the absorbance values of the culture medium were measured at 490 nm.

Row | Molecule | cell number compared with the α-MSH treated group
36 | OC[C@H]1O[C@@H](Oc2ccc(O)cc2)[C@H](O)[C@@H](O)[C@@H]1O [arbutin] | significantly decreased

Tested on: not listed separately
Assay: Stability of niacin-peptides in human serum
Type: in vitro ADME
Conditions: 100 μg/ml, incubated with human serum for 10 hr
Protocol: The prepared solutions were introduced into glass vials and kept to stand at 40° C. for 7, 14, 21, 28, 35, 42 and 60 days. […] The present inventors tested stability of niacin-peptides in human serum. Niacin-peptides (nicotinoyl-PS, 100 μg/ml) or niacin-unlinked peptide (PS, 100 μg/ml) was incubated with human serum for 10 hr, and the amount of residual peptides was measured at every hour. According to the result of the comparative stability experiment, when nicotinoyl-PS (nicotinoyl group linked to the N-terminal of PS peptide) was incubated with the serum for 10 hr, the stability of niacin-peptides was 20% higher than the control group (niacin-unlinked peptide).

Row | Molecule | stability higher than the control group (niacin-unlinked peptide PS)
37 | O=C(O)[C@H](CO)NC(=O)[C@@H]1CCCN1C(=O)c1cccnc1 [nicotinoyl-PS] (Nicotinoyl-Pro-Ser-OH) | 20%

Tested on: melanin movement from melanocytes to keratinocytes
Assay: not given
Conditions: cited from earlier work

Row | Molecule | decrease of melanin movement from melanocytes to keratinocytes
38 | NC(=O)c1cccnc1 [Niacinamide] | 68%
